Results reported in US12667538B2, “Vilazodone pharmaceutical composition, preparation method therefor and use thereof” (SHANGHAI YONSUN BIOTECHNOLOGY CO., LTD., priority 2020, dated 2026).

Assay: Particle size and distribution on a laser particle analyzer
Format: physicochemical
Settings: drug substance used for formulas 14-23
Protocol: According to formula 1 shown in Table 1, the raw and auxiliary materials were weighed out and well mixed to obtain the suspension. The particle size was measured on a laser particle analyzer (parameter settings: dispersion medium: water; refractive index of dispersion medium: 1.333; absorbance of sample material: 0.05; refractive index of sample material: 1.711). The particle size morphology of the particles in the ground suspension was observed under a polarized light microscope. The particle size morphology of the solid particles of vilazodone in the suspension under the polarized light microscope is shown in FIG. 2.
The particle size of formulas 3, 4 and 5 and the distribution thereof were measured on a laser particle analyzer using the following parameter settings: dispersion medium: water; refractive index of dispersion medium: 1.333; absorbance of sample material: 0.05; refractive index of sample material: 1.711. The particle size and the distribution of formula 6 were measured on a nano particle size analyzer (NICOMP Particle Sizing Systems) using the following parameter settings: dispersion medium: water; refractive index of dispersion medium: 1.333; viscosity: 0.933 cp; temperature: 23° C.; luminous intensity setting: 300 kHz.
The particle size of formula 7 and the distribution thereof were measured on a laser particle analyzer using the following parameter settings: dispersion medium: water; refractive index of dispersion medium: 1.333; absorbance of sample material: 0.05; refractive index of sample material: 1.711. […]
According to the formulas shown in Table 12, the drug substance of different particle sizes and auxiliary materials were weighed out and well mixed by stirring to form suspensions, and formulas 8-13 were obtained. The particle size and the distribution thereof were measured on a laser particle analyzer using the following parameter settings: dispersion medium: water; refractive index of dispersion medium: 1.333; absorbance of sample material: 0.05; refractive index of sample material: 1.711. […]

- D10: 8.4 μm
- D50: 20.6 μm
- D90: 43.9 μm
Structure (SMILES): Cl.N#Cc1ccc2[nH]cc(CCCCN3CCN(c4ccc5oc(C(N)=O)cc5c4)CC3)c2c1 [Vilazodone hydrochloride, 2-benzofurancarboxamide, 5-[4-[4-(5-cyano-1H-indol-3-yl)butyl]-1-piperazinyl] hydrochloride (1:1)]
